Results reported in patent US20240228499A1, “MASP-2 INHIBITORS AND METHODS OF USE” (Omeros Corporation, priority 2022, published 2024).
Counter-ions that a name gives are not always drawn.

How the values were obtained:
[1] = target: T1, MASP-2 (CCP1-CCP2-SP) (Homo sapiens, UniProt O00187); test: Enzymatic assay for MASP-2 inhibitory activity (fluorogenic substrate); type: biochemical; details: room temperature, 20 mM Hepes pH 7.4, 20 min
T1 construct: 15 μL of Enzyme MASP-2 (CCP1-CCP2-SP) in Assay Buffer
T1 sequence (O00187 287-686 limits assumed): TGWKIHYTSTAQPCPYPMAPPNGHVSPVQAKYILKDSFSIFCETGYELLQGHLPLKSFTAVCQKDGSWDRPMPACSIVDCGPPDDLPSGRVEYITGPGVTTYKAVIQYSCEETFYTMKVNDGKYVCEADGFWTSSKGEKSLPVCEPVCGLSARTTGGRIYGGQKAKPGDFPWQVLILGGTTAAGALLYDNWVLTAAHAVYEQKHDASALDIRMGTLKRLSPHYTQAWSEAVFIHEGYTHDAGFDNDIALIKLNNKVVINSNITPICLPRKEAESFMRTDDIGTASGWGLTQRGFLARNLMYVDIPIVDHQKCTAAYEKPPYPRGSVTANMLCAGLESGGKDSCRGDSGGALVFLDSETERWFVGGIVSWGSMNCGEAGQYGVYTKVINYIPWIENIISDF
Protocol: The MASP-2 assay utilizes a fluorogenic substrate, based on the cleavage site for its natural substrate C2. The assay was run at room temperature in an assay buffer containing 20 mM HEPES, pH 7.4, 140 mM NaCl and 0.1% Tween 20. Assay parameters were adjusted such that the assay was linear with respect to time, enzyme, and substrate concentrations. Under the optimized assays conditions, IC50 values were equivalent to Ki values, except in the few cases of “tight binding” inhibitors. Cases of “tight binding” or possible “slow binding” inhibitors were handled by the methods described in Copeland R. A. (2013) Evaluation of Enzyme Inhibitors in Drug Discovery. 2nd Ed., John Wiley and Sons, Inc., Chapters 5-7.
The MASP-2 assay protocol was carried out as follows. Test compounds were serially diluted in DMSO and then 100 nL of each dilution was transferred to the assay plate(s). 10 μL of Assay Buffer was added, followed by 15 μL of Enzyme MASP-2 (CCP1-CCP2-SP) in Assay Buffer. 15 μL of Substrate in Assay Buffer was then added and the mixture was mixed to start the reaction. After 20 min at room temperature, 15 μL of a stop solution (0.1 M acetic acid) was added, the sample was mixed, and the plates were read on a SpectraMax i3× Microplate Reader with the data exported as an Excel file. Each assay plate included a “no inhibitor” (DMSO only) control, a “no enzyme” control, and a reference inhibitor control. % Activity values=100*(average test comp. fluorescence−average “no enzyme” fluorescence)/(average “DMSO only” fluorescence−average “no enzyme” fluorescence). IC50 and Ki replicate values were very reproducible, with values well within +2-fold.

[2] = target: T2, human a-thrombin (Homo sapiens, UniProt P00734); test: Enzymatic assay for thrombin (fluorogenic peptide substrate Boc-VPR-AMC); type: biochemical; details: room temperature, 20 mM Hepes pH 7.4, 20 min
T2 construct: enzyme (human a-thrombin (BioPharm® Lab.)); purchased BioPharm Lab
Protocol: The thrombin assay utilizes a fluorogenic peptide substrate (Boc-VPR-AMC (R&D Systems) and was run at room temperature in an assay buffer containing 20 mM Hepes, pH 7.4, 140 mM NaCl and 0.1% Tween 20. Assay parameters were adjusted such that the assay was linear with respect to time, enzyme, and substrate concentrations. Under these optimized assays conditions, IC50 values were equivalent to Ki values, except in a few cases of “tight binding” inhibitors. Cases of “tight binding” or possible “slow binding” inhibitors were handled by the methods described in Copeland R.A. (2013) Evaluation of Enzyme Inhibitors in Drug Discovery. 2nd Ed. John Wiley and Sons, Inc., Chapters 5-7.
The thrombin assay protocol was carried out as follows. Test compounds were serially diluted in DMSO and then 100 nL of each dilution was transferred to the assay plate(s). 10 μL of Assay Buffer was added, followed by 15 μL of enzyme (human a-thrombin (BioPharm® Lab.)) in assay buffer. 15 μL of substrate in assay buffer was then added and the sample mixed to start the reaction. After 20 min at room temperature, 15 μL of a stop solution (0.1 M acetic acid) was added, the sample was mixed, and the plates were read on a SpectraMax® i3× Microplate Reader with the data exported as Excel files. Each assay plate included a “no inhibitor” (DMSO only) control, a “no enzyme” control, and a reference inhibitor control. % Activity values=100*(ave. test comp. fluorescence−ave. “no enz” fluorescence)/(ave. “DMSO only” fluorescence−ave. “no enz” fluorescence). IC50 and Ki values were very reproducible, with values falling well within +2-fold.

Ki [1] [nM]	Ki [2] [nM]	SMILES
< 500	500 to 2500	Cc1cc(C)cc(CNc2cnc3n(c2=O)[C@H](C(=O)NCc2ccc(N)nc2C)CC3)c1 [Compound 1, (S)—N-((6-amino-2-methylpyridin-3-yl)methyl)-3-((3,5-dimethylbenzyl)amino)-4-oxo-4,6,7,8-tetrahydropyrrolo[1,2-a]pyrimidine-6-carboxamide]
< 500	< 500	Cc1cc(C)cc(CNc2cnc3n(c2=O)[C@H](C(=O)NCc2cc(Cl)ccc2-n2cnnn2)CC3)c1 [Compound 5, (S)—N-(5-chloro-2-(1H-tetrazol-1-yl)benzyl)-3-((3,5-dimethylbenzyl)amino)-4-oxo-4,6,7,8-tetrahydropyrrolo[1,2-a]pyrimidine-6-carboxamide trifluoroacetic acid]
< 500	> 25000	Cc1cc(C)cc(CNc2cnc3n(c2=O)[C@H](C(=O)NCc2cc4cnc(C)cc4[nH]2)CC3)c1 [Compound 7, (S)-3-((3,5-dimethylbenzyl)amino)-N-((6-methyl-1H-pyrrolo[3,2-c]pyridin-2-yl)methyl)-4-oxo-4,6,7,8-tetrahydropyrrolo[1,2-a]pyrimidine-6-carboxamide, trifluoroacetate]
< 500	2500 to 10000	COc1ccc(C)cc1CNc1cnc2n(c1=O)[C@H](C(=O)NCc1ccc(N)nc1C)CC2 [Compound 9, (S)-N-((6-amino-2-methylpyridin-3-yl)methyl)-3-((2-methoxy-5-methylbenzyl)amino)-4-oxo-4,6,7,8-tetrahydropyrrolo[1,2-a]pyrimidine-6-carboxamide, trifluoroacetate]
< 500	500 to 2500	Cc1nc(N)ccc1CNC(=O)[C@@H]1CCc2ncc(NCc3cccc(N4CCOCC4)c3)c(=O)n21 [Compound 11, (S)-N-((6-amino-2-methylpyridin-3-yl)methyl)-3-((3-morpholinobenzyl)amino)-4-oxo-4,6,7,8-tetrahydropyrrolo[1,2-a]pyrimidine-6-carboxamide, hydrochloride]
< 500	2500 to 10000	Cc1nc(N)ccc1CNC(=O)[C@@H]1CCc2ncc(NCc3ccc4c(c3)OC(F)(F)O4)c(=O)n21 [Compound 12, (S)—N-((6-amino-2-methylpyridin-3-yl)methyl)-3-(((2,2-difluorobenzo[D][1,3]dioxol-5-yl)methyl)amino)-4-oxo-4,6,7,8-tetrahydropyrrolo[1,2-a]pyrimidine-6-carboxamide, trifluoroacetate]
< 500	2500 to 10000	Cc1nc(N)ccc1CNC(=O)[C@@H]1CCc2ncc(NCc3cccc4c3OCCO4)c(=O)n21 [Compound 14, (S)-N-((6-amino-2-methylpyridin-3-yl)methyl)-3-(((2,3-dihydrobenzo[b][1,4]dioxin-5-yl)methyl)amino)-4-oxo-4,6,7,8-tetrahydropyrrolo[1,2-a]pyrimidine-6-carboxamide]
< 500	> 25000	Cc1cc(C)cc(CNc2cnc3n(c2=O)[C@H](C(=O)N[C@@H](C)c2ccc(N)nc2)CC3)c1 [Compound 15, (S)—N—((S)-1-(6-aminopyridin-3-yl)ethyl)-3-((3,5-dimethylbenzyl)amino)-4-oxo-4,6,7,8-tetrahydropyrrolo[1,2-a]pyrimidine-6-carboxamide]
< 500	< 500	Cc1cc(C)cc(CNc2cnc3n(c2=O)[C@H](C(=O)NCc2cncc(Cl)c2)CC3)c1 [Compound 17, (S)—N-((5-chloropyridin-3-yl)methyl)-3-((3,5-dimethylbenzyl)amino)-4-oxo-4,6,7,8-tetrahydropyrrolo[1,2-a]pyrimidine-6-carboxamide, trifluoroacetate]

The remaining lines, values behind:

SMILES	Ki [1] [nM]	Ki [2] [nM]
Cc1cccc(C(C)Nc2cnc3n(c2=O)[C@H](C(=O)NCc2cc4c(s2)CNC4)CC3)c1 (single isomer, unassigned) [Compound 69, di-trifluoroacetate]	< 500	500 to 2500
Cc1cccc(C(C)Nc2cnc3n(c2=O)[C@H](C(=O)NCc2cc4c(s2)CNC4)CC3)c1 (single isomer, unassigned) [Compound 70, di-trifluoroacetate]	< 500	10000 to 25000
COc1cc(C)cc(CNc2cnc3n(c2=O)[C@H](C(=O)NCc2ccc(N)nc2C)CC3)c1 [Compound 2, (S)—N-((6-amino-2-methylpyridin-3-yl)methyl)-3-((3-methoxy-5-methylbenzyl)amino)-4-oxo-4,6,7,8-tetrahydropyrrolo[1,2-a]pyrimidine-6-carboxamide]	< 500	< 500
Cc1ccc(F)c(CNc2cnc3n(c2=O)[C@H](C(=O)NCc2ccc(N)nc2C)CC3)c1 [Compound 3, (S)—N-((6-amino-2-methylpyridin-3-yl)methyl)-3-((2-fluoro-5-methylbenzyl)amino)-4-oxo-4,6,7,8-tetrahydropyrrolo[1,2-a]pyrimidine-6-carboxamide]	< 500	500 to 2500
Cc1cc(C)cc(CNc2cnc3n(c2=O)[C@H](C(=O)NCc2ccc(N)nc2)CC3)c1 [Compound 4, (S)—N-((6-aminopyridin-3-yl)methyl)-3-((3,5-dimethylbenzyl)amino)-4-oxo-4,6,7,8-tetrahydropyrrolo[1,2-a]pyrimidine-6-carboxamide]	< 500	500 to 2500
Cc1cc(C)cc(CNc2cnc3n(c2=O)[C@H](C(=O)NCc2cc4cnccc4[nH]2)CC3)c1 [Compound 6, (S)—N-((1H-pyrrolo[3,2-c]pyridin-2-yl)methyl)-3-((3,5-dimethylbenzyl)amino)-4-oxo-4,6,7,8-tetrahydropyrrolo[1,2-a]pyrimidine-6-carboxamide]	< 500	2500 to 10000
Cc1cc(C#N)cc(CNc2cnc3n(c2=O)[C@H](C(=O)NCc2ccc(N)nc2C)CC3)c1 [Compound 8, (S)—N-((6-amino-2-methylpyridin-3-yl)methyl)-3-((3-cyano-5-methylbenzyl)amino)-4-oxo-4,6,7,8-tetrahydropyrrolo[1,2-a]pyrimidine-6-carboxamide]	< 500	500 to 2500
COc1c(C)cccc1CNc1cnc2n(c1=O)[C@H](C(=O)NCc1ccc(N)nc1C)CC2 [Compound 10, (S)—N-((6-amino-2-methylpyridin-3-yl)methyl)-3-((2-methoxy-3-methylbenzyl)amino)-4-oxo-4,6,7,8-tetrahydropyrrolo[1,2-a]pyrimidine-6-carboxamide, trifluoroacetate]	< 500	500 to 2500
Cc1nc(N)ccc1CNC(=O)[C@@H]1CCc2ncc(NCc3cccc(C(=O)O)c3)c(=O)n21 [Compound 13, (S)-3-(((6-(((6-amino-2-methylpyridin-3-yl)methyl)carbamoyl)-4-oxo-4,6,7,8-tetrahydropyrrolo[1,2-a]pyrimidin-3-yl)amino)methyl)benzoic acid]	< 500	10000 to 25000
Cc1cc(C)cc(CNc2cnc3n(c2=O)[C@H](C(=O)N[C@H](C)c2ccc(N)nc2)CC3)c1 [Compound 16]	< 500	> 25000
Cc1cc(C)cc(CNc2cnc3n(c2=O)[C@H](C(=O)NCc2ccnc(C)c2)CC3)c1 [Compound 19, (S)-3-((3,5-dimethylbenzyl)amino)-N-((2-methylpyridin-4-yl)methyl)-4-oxo-4,6,7,8-tetrahydropyrrolo[1,2-a]pyrimidine-6-carboxamide]	500 to 2500	> 25000
